The NIST ThermoML archive (doi:10.1016/j.fluid.2015.03.012)

Assay: mn = molality of the nth substance listed, in mol/kg
Conditions: Survismeter

C[C@H](CCC(=O)[O-])[C@H]1CC[C@H]2[C@@H]3CC[C@@H]4C[C@H](O)CC[C@]4(C)[C@H]3C[C@H](O)[C@]12C.[Na+] [sodium deoxycholate] + O
surface tension liquid-gas [mN/m]
Conditions | 293.15 K | 298.15 K | 303.15 K | 308.15 K | 313.15 K | 318.15 K
m1 = 0.001 | 58.04 | 55.92 | 54.2 | 54.06 | 54.23 | 54.09
m1 = 0.002 | 55.17 | 53.25 | 51.68 | 51.56 | 51.75 | 51.62
m1 = 0.003 | 53.42 | 51.34 | 49.87 | 49.77 | 50.21 | 50.1
m1 = 0.004 | 50.47 | 48.6 | 47.5 | 47.19 | 47.62 | 48.2
m1 = 0.005 | 48.29 | 46.35 | 46.18 | 45.89 | 46.32 | 46.44
m1 = 0.006 | 46.29 | 45.1 | 45.13 | 44.86 | 45.29 | 45.21
m1 = 0.007 | 45.25 | 44.7 | 44.53 | 44.27 | 44.69 | 44.42
m1 = 0.009 | 44.86 | 44.51 | 44.34 | 43.89 | 44.11 | 44.04
m1 = 0.011 | 44.66 | 44.32 | 44.16 | 44.09 | 44.31 | 44.24
m1 = 0.013 | 44.87 | 44.53 | 44.16 | 43.9 | 44.32 | 44.24
m1 = 0.015 | 45.08 | 44.73 | 44.17 | 44.1 | 44.14 | 44.06
m1 = 0.017 | 44.89 | 44.54 | 44.18 | 44.3 | 44.14 | 44.26

C[C@H](CCC(=O)[O-])[C@H]1CC[C@H]2[C@@H]3[C@H](O)C[C@@H]4C[C@H](O)CC[C@]4(C)[C@H]3C[C@H](O)[C@]12C.[Na+] [sodium cholate] + O
surface tension liquid-gas [mN/m]
Conditions | 293.15 K | 298.15 K | 303.15 K | 308.15 K | 313.15 K | 318.15 K
m1 = 0.001 | 63.15 | 62.55 | 61.55 | 61.35 | 60 | 59.45
m1 = 0.002 | 61.61 | 61.03 | 60.07 | 59.88 | 58.96 | 58.1
m1 = 0.003 | 60.5 | 59.94 | 59.01 | 58.83 | 57.95 | 57.45
m1 = 0.004 | 59.43 | 58.89 | 58.33 | 57.82 | 56.98 | 56.5
m1 = 0.006 | 57.08 | 56.89 | 56.04 | 55.58 | 55.14 | 54.69
m1 = 0.008 | 55.21 | 55.03 | 54.52 | 54.09 | 53.41 | 52.99
m1 = 0.01 | 54.04 | 53.57 | 53.09 | 52.68 | 52.05 | 51.65
m1 = 0.014 | 51.04 | 50.87 | 50.43 | 50.32 | 50.26 | 49.42
m1 = 0.018 | 50.55 | 50.64 | 50.2 | 49.59 | 49.07 | 48.73
m1 = 0.022 | 50.83 | 50.4 | 50.22 | 49.61 | 49.09 | 48.75
m1 = 0.026 | 50.59 | 50.17 | 49.99 | 49.63 | 49.11 | 48.77
m1 = 0.03 | 50.62 | 50.2 | 50.26 | 49.9 | 49.37 | 48.56
